This is an account of results in patent US20090253644A1, “Radiosensitizer” (TOYO SUISAN KAISHA, LTD., priority 2004, published 2009).

Several values for one entry are separate records, joined by “and”; a condition that tells them apart may be missing. Identical values can stand only once.

The subject of assay [1] is Bovine aortic endothelial cells (BAEC). The experiment in a line: Colony assay on vascular endothelial cells with 60Co γ-ray irradiation. It is filed as cell-based. The settings on record: for SF (cell surviving fraction), administration alone: 24 hours, no irradiation. Also on record: key to actually measured SF value of combined use group / actually measured SF value of combined use: SF = colonies/seeded cells×(PE/100); PE = control colony formation rate. On the procedure: Bovine aortic endothelial cells (BAEC) were appropriately seeded on a petri dish, and adhesion of cells was confirmed after 2 to 3 hours. In a group of α-SQMG C18:0 administration alone and a combined use group, the cells were treated with 10 μM of α-SQMG C18:0. After 24 hours, a medium was exchanged in all test groups, and 4 Gy of ^60Co γ-ray was irradiated in a group of irradiation alone and a combined use group. After the cells were cultured in a CO2 incubator at 37° C. for 10 to 12 days, formed colonies were fixed with formalin, and stained with a crystal violet staining solution. On each plate, the number of colonies consisting of about 50 or more cells was counted, and cell surviving fraction (SF) was obtained according to the following equation.
SF (cell surviving fraction)=number of colonies/number of seeded cells×(PE/100)
Herein, PE (plating efficiency) represents a colony formation rate (%) on a plate of a control.
An experiment was performed three times, and an average of them was calculated.
The same experiment as that of Experimental Example 2-1 was performed except that a radiation dose 6 Gy was irradiated in place of 4 Gy used in Experimental Example 2-1. […]

The test system of assay [2] is human uterine cervical cancer cells (HeLa cells). Kind of assay: Animal experiment: HeLa tumor-transplanted nude mice, tumor growth delay with X-ray irradiation. It is filed as in vivo. To be noted: Exp. Ex. 1-6: X-ray 8 Gy day 0 and day 4. As to the method:
A human cancer-transplanted mouse was prepared in the same manner as in Experimental Example 1-5 except that human uterine cervical cancer cells (HeLa cells) were transplanted into a nude mouse. When tumor volume reached 100 mm^3, α-SQMG C18:0 administration and irradiation treatment were performed. In a single use group of irradiation, each mouse was irradiated with X-ray at a dose of 8 Gy two times on day 0 and day 4. In a single use group of α-SQMG C18:0 administration, α-SQMG C18:0 was intraperitoneally administered at a concentration of 1 mg/kg at a total of 10 times consisting of two courses of 5 times, that is, once a day from day 0 to day 4 and once a day from day 12 to day 16. In the combined use group, each mouse of the group was treated with both of irradiation and α-SQMG C18:0 administration. In the control group, neither irradiation nor α-SQMG C18:0 administration was performed. Thereafter, tumor volume was measured over a period of 35 days in the same manner as the above Experimental Example 1-1.

The subject of assay [3] is Human esophageal cancer cells (TE-8 cells). The experiment in a line: Animal experiment: TE-8 tumor-transplanted nude mice, tumor growth delay with X-ray irradiation. In kind it is in vivo. To be noted: Exp. Ex. 1-5: X-ray 8 Gy day 0 and day 4. As to the method:
Five nude mice (eight weeks old) were randomly assigned to each of four groups. Human esophageal cancer cells (TE-8 cells) were transplanted to each mouse in the same manner as the above Experimental Example 1-1. When tumor volume reached 50 mm^3, α-SQMG C18:0 administration and irradiation treatment were performed. In a single use group of irradiation, each mouse was irradiated with X-ray at a dose of 8 Gy two times on day 0 and day 4. In a single use group of α-SQMG C18:0 administration, the sensitizer was intraperitoneally administered at a concentration of 1 mg/kg once a day at a total of 5 times from day 0 to day 4. In a combined use group, each mouse of the group was treated with both of irradiation and α-SQMG C18:0 administration. In the control group, neither irradiation nor α-SQMG C18:0 administration was performed. Thereafter, tumor volume was measured over a period of 51 days in the same manner as the above Experimental Example 1-1.
In addition, an enhancement ratio (ER) was obtained according to the method described in Experimental Example 1-2. […] For this reason, an enhancement ratio was calculated from the number of days until tumor volume reaches 400 mm^3. As a result, ER was 3.25, and it was shown that synergistic effect was extremely high.

As for `CCCCCCCCCCCCCCCCCC(=O)OCC(O)CO[C@H]1O[C@H](CS(=O)(=O)[O-])[C@@H](O)[C@H](O)[C@H]1O.[Na+]` (stereo partly drawn) [α-SQMG C18:0, 3-O-(6-deoxy-6-sulfo-α-D-glucopyranosyl)-1-O-stearoyl-glycerol sodium salt], the entries for the “actually measured SF value of combined use” value in assay [1] (5 μM + 2 Gy 60Co γ-ray) and in assay [1] (10 μM + 2 Gy 60Co γ-ray) were 0.1370 and 0.0644, respectively. In addition, the “theoretical additive point of combined use (SF)” value in assay [1] (5 μM + 2 Gy 60Co γ-ray) was 0.6012; in assay [1] (10 μM + 2 Gy 60Co γ-ray), 0.5620; in assay [1] (10 μM + 4 Gy 60Co γ-ray), 0.0974; in assay [1] (10 μM + 6 Gy 60Co γ-ray), 0.0505. Moreover, the “SF (cell surviving fraction), administration alone” value in assay [1] (5 μM) is 1.0094; in assay [1] (10 μM, sodium salt), 0.616 and 0.9433. Moreover, the “actually measured SF value of combined use group” value in assay [1] (10 μM + 4 Gy 60Co γ-ray) is on record as 0.0640; in assay [1] (10 μM + 6 Gy 60Co γ-ray), 0.0180. In addition, in assay [1] (10 μM, 4 Gy and/or 6 Gy), the “synergistic effect of combined use with radiation on suppression of proliferation of vascular endothelial cells” value is “considerably great synergistic effect”. Moreover, in assay [1] (Exp. Ex. 2-5: 0 to 25 μM, 0 Gy), the “cell proliferation suppressing effect, treatment alone” value is “cell proliferation suppressing effect is not obtained”. Also, the “effect of irradiation on suppression of cell proliferation, combined use” value in assay [1] (Exp. Ex. 2-5: 0 to 25 μM, 2 to 8 Gy 60Co γ-ray) is on record as “increased”. For the same molecule, the “enhancement ratio (ER)” value in assay [2] (1 mg/kg i.p. day 0 to 4 and day 12 to 16, tumor volume 500 mm^3) is listed as 2.71; in assay [3] (1 mg/kg i.p. day 0 to 4, calculated from days until tumor volume reaches 400 mm^3), 3.25. Further, the “anti-tumor effect (tumor volume), combined use with irradiation” value in assay [2] (1 mg/kg i.p. once a day day 0 to 4 and day 12 to 16) is “anti-tumor effect far exceeding the anti-tumor effect attained by irradiation”; in assay [3] (1 mg/kg i.p. once a day day 0 to 4) it was “anti-tumor effect far exceeding the anti-tumor effect attained by irradiation”.
